From patent US7671052B2 (priority 2004, dated 2010)
Like-named read-outs stand apart in the source and are kept apart here.

What was measured:
[1] = test system: Male ICR mice; test: Catalepsy ring test; format: in vivo, mouse; details: for % catalepsy @ 30 mg/kg: 30 mg/kg i.p.; for % catalepsy @ 30 mg/kg / % catalepsy @ 100 mg/kg: 60 or 90 minutes after dosing; for % catalepsy @ 100 mg/kg: 100 mg/kg i.p.
Experimental: The apparatus consisted of a 5.5 centimeter ring attached to a ring stand at a height of 16 centimeters. Male ICR mice (20-25 g) were placed on the ring 60 or 90 minutes after dosing (i.p.) with test compounds or vehicle. Normal behavior for a mouse would be to walk around and investigate the ring. Catalepsy was shown when the mouse remained motionless. The amount of time (in seconds, in a 5 minute test session) the mouse spent motionless was determined.
Mice that fell or jumped were allowed 5 “escapes”. If 5 “escapes” happened before 2.5 minutes into the test, the data were disregarded. The immobility index (% catalepsy) was determined by the amount of time spent immobile divided by the length of the test (P. Little et al. Pharmac. Biochem. & Behavior 1989, 32, 661-666). Since the CB1 receptor is thought to be responsible for psychoactivity, the catalepsy ring test is an excellent in vivo screen for CB1 activity.

[2] = molecular target: T1, hCB1 (Homo sapiens, UniProt P21554); test: hCB1-mediated stimulation of [35S]GTPγS binding; format: biochemical; details: read-out: in vitro CB1 receptor agonist potency (EC50)
T1 construct: expressed in transfected cells; host or cells: CHO-K1 (Chinese hamster ovary), stably transfected; membrane preparation
Experimental: (§1) Chinese hamster ovary cells (CHO-K1), stably transfected with either hCB1 or hCB2, were washed two times with cold PBS, scraped from 500 cm^2 tissue culture plates, and pelleted by centrifugation at 1000×g for 10 min. The supernatant was discarded and the pellet was re-suspended in Tris assay buffer (50 mM Tris HCl, pH 7.8, containing 1.0 mM EGTA, 5.0 mM MgCl2, 10 μg/mL leupeptin, 10 μg/mL pepstatin A, 200 μg/mL bacitracin, and 0.5 μg/mL aprotinin), homogenized with a Polytron homogenizer (Brinkmann) at a setting of 1 for 20 sec and centrifuged at 38,000×g for 20 min at 4° C. The pellet was re-suspended in Tris assay buffer and aliquots of 1 mg protein/mL were stored at −80° C. for further use.
hCB1-mediated stimulation of [^35S]GTPγS binding was measured in a mixture containing 100-150 pM [^35S]GTPγS, 150 mM NaCl, […], 0.4 mM DTT, 1 mM EGTA, 1 mg/mL fatty acid free BSA, 25 μg of membrane protein and agonist in a total volume of 250 μL of buffer A in 96 well Basic Flashplates (Perkin Elmer). After incubation at room temperature for 2 hours the plates were centrifuged at 800×g at 4° C. for 5 min and the radioactivity bound to the membranes was determined by scintillation spectrometry using the Topcount (Perkin Elmer). […]

[3] = molecular target: T1, hCB1; test: Inhibition of [3H]CP55940 binding to hCB1 receptor membranes; details: human cloned CB1 receptor
Experimental: as §1
Binding assays were performed by incubating 0.2-0.6 nM (34,000-100,000 dpm) of [^3H]CP55940 with membranes prepared from cells expressing cloned human CB1 or CB2 receptors in buffer A (50 mM Tris HCl, pH 7.0, 5.0 mM MgCl2, 1.0 mM EGTA and 1.0 mg/mL fatty acid free bovine serum albumin). […] The filters were rinsed 6 times with one mL of cold wash buffer (50 mM Tris HCl, pH 7.0, 5.0 mM MgCl2, 1.0 mM EGTA and 0.75 mg/mL fatty acid free bovine serum albumin), 30 μL of MicroScint 20 was added to each filter and the radioactivity on the filters determined by scintillation spectroscopy. Nonspecific binding was determined in the presence of 10 μM WIN55212-2. […]

[4] = molecular target: T2, hCB2 (Homo sapiens, UniProt P34972); test: hCB2-mediated stimulation of [35S]GTPγS binding; format: biochemical; details: read-out: in vitro CB2 receptor agonist potency (EC50)
T2 construct: expressed in transfected cells; host or cells: CHO-K1 (Chinese hamster ovary), stably transfected; membrane preparation
Experimental: hCB2-mediated [^35S]GTPγS binding was measured in the same way except the assay mixture contained 10 mM GDP and the incubation time was 6 hours. […] After incubation at 30° C. for 2 hours, the plates were centrifuged at 800×g at 4° C. for 5 min and the radioactivity bound to the membrane was determined by scintillation spectrometry using the Topcount (Perkin Elmer).
EC50 values in functional assays were also derived from automated nonlinear regression analysis of sigmoidal titration curves using the three-parameter modification of the four-parameter equation.

[5] = molecular target: T2, hCB2; test: Inhibition of [3H]CP55940 binding to hCB2 receptor membranes
[6] = test system: Male Sprague-Dawley rats; test: Neuropathic pain assay: L5 spinal nerve ligation, tactile sensitivity (von Frey); format: in vivo, rat; details: L5 SNL rats
Experimental: Male Sprague-Dawley rats (120-250 g, Harlan Laboratories, Columbus, Ohio) were housed in pairs and allowed free access to food and water throughout the study. Room temperature and humidity were maintained at 21° C. and 70%, respectively. Nerve injury was produced with tight ligation of the left L5 spinal nerve (Kim and Chung, 1992; LaBuda and Fuchs, 2000a, 2000b, LaBuda, Donahue and Fuchs, 2001). Briefly, animals were placed in the prone position to access the left L4-L6 spinal nerves. Under magnification, approximately one third of the L6 transverse process was removed. The L5 spinal nerve was identified and carefully dissected free from the adjacent L4 spinal nerve and then tightly ligated using 6-0 silk suture. The wound was treated with an antiseptic solution, the muscle layer was sutured, and the wound was closed with wound clips. Sham-operated surgical controls were prepared in the same manner, but the L5 spinal nerve was not […]. All housing conditions and experimental procedures were performed in accordance with the ethical guidelines of the IASP and the Adolor Corporation Animal Care and Use Committee.
Seven to ten animals per group were used for all behavioral assays. After a 7-10 day post-surgical recovery, animals were tested for baseline sensitivity to tactile stimulation of both hindpaws. Allodynic animals were defined as animals having a threshold of less than 7.5 grams of pressure applied to the injured hindpaw. Tactile sensitivity was evaluated using von Frey monofilaments before and after treatment. […] Thirty minutes after treatment, tactile sensitivity was evaluated. Five to seven days later, animals were tested using a different compound. Each animal was tested three times with different compounds. All behavioral testing was performed between 9:00 AM and 5:00 PM in a well-illuminated room with white background noise.
Animals were placed in a Plexiglas chamber (20 cm×10.5 cm×40.5 cm) and habituated for 15 minutes. The chamber was positioned on top of a mesh screen so that von Frey monofilaments could be presented to the plantar surfaces of both hindpaws. Measurements of tactile sensitivity for each hindpaw were obtained using the up/down method (Dixon, 1980) with seven von Frey monofilaments (0.04, 0.07, 0.16, 0.4, 1, 6, and 15 grams). Each trial started with a von Frey force of 0.4 g delivered to the right hindpaw and then the left hindpaw for approximately 1-2 sec each. If there was no withdrawal response, the next higher force was delivered. If there was a response, the next lower force was delivered. This procedure was performed until no response was made at the highest force (15 grams) or until four stimuli were administered following the initial response. The 50% paw withdrawal threshold for each paw was calculated using the following formula: [Xth]log=[vFr]log+ky where [vFr] is the force of the last von Frey filament used, k=0.2249 which is the average interval (in log units) between the von Frey monofilaments, and y is a value that depends upon the pattern of withdrawal responses (Dixon, 1980). […] Testing for tactile sensitivity was performed twice and the mean 50% withdrawal value assigned as the tactile sensitivity for the right and left paws for each animal.
Tactile sensitivity for both hindpaws before and after treatments were analyzed using one-way analysis of variance (ANOVA) followed by post-hoc comparisons (protected t-test) for group differences. An alpha level of 0.05 was used for all analyses.

[7] = Table 3, 10 mg/kg, n = 7-8/group
[8] = Table 3, 2.5 mg/kg i.p., n = 7-8/group

T2 sequence (P34972 whole entry): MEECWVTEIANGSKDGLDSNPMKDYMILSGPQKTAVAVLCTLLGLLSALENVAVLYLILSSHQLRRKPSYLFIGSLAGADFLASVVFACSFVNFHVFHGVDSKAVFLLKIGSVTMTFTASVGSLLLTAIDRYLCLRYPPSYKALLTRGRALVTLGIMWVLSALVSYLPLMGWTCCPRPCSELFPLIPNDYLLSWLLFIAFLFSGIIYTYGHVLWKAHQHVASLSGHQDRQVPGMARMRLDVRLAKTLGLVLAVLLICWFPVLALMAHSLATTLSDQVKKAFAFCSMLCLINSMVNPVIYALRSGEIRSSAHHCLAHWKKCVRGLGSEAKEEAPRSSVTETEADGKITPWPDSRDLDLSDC
T1 sequence (P21554 whole entry): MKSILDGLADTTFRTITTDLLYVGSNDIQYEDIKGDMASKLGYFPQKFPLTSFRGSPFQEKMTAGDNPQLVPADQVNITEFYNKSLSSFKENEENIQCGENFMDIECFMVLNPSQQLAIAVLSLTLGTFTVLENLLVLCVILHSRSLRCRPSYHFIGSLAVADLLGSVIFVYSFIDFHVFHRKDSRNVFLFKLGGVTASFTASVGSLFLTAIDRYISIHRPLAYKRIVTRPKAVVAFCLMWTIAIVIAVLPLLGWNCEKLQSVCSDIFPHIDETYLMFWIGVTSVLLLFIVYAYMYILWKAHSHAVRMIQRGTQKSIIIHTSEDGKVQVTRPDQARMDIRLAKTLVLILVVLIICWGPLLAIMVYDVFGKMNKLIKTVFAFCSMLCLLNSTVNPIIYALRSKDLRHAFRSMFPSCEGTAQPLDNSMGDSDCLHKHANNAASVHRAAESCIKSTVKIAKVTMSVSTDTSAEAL

In the case of `CCNC(=O)NCc1cccc(-c2ccc(C(C)(C)COCCC(=O)N3CCOCC3)cc2O)c1` [Compound 11, 1-{4′-[1,1-Dimethyl-2-(3-morpholin-4-yl-3-oxo-propoxy)-ethyl]-2′-hydroxy-biphenyl-3-yl-methyl}-3-ethyl-urea], the “% catalepsy @ 30 mg/kg” value [1] is reported as 6.65 ± 1.87% and the “% catalepsy @ 100 mg/kg” value [1] is reported as 18.80 ± 3.33%.

For `CCCCOCC(C)(C)c1ccc(-c2ccccc2CNC(=O)NCC)c(O)c1` [Compound 12, 1-[4′-(2-Butoxy-1,1-dimethyl-ethyl)-2′-hydroxy-biphenyl-2-ylmethyl]-3-ethyl-urea], the EC50 [2] was 15.5 nM, the Ki [3] was 1.6 nM and the EC50 [4] was 15.2 nM. The Ki ([5]; human cloned CB2 receptor, read-out: Ki(CB2)) was 0.56 nM.

With `CCCCOCC(C)(C)c1ccc(-c2cccc(CNC(=O)NCCC)c2)c(O)c1` [Compound 15, 1-[4′-(2-Butoxy-1,1-dimethyl-ethyl)-2′-hydroxy-biphenyl-3-ylmethyl]-3-propyl-urea] the EC50 [2] was 29.1 nM, the Ki [3] was 1.1 nM and the EC50 [4] was 5.1 nM. It also gave a Ki [5] of 0.4 nM.

With `CCNC(=O)NCc1cccc(-c2ccc(C(C)(C)COCCOC)cc2O)c1` [Compound 17, 1-Ethyl-3-{2′-hydroxy-4′-[2-(2-methoxy-ethoxy)-1,1-dimethyl-ethyl]-biphenyl-3-ylmethyl}-urea] the “% catalepsy @ 30 mg/kg” value [1] was 12.21 ± 2.79% and the “% catalepsy @ 100 mg/kg” value [1] was 47.93 ± 5.98%.

With `CCNC(=O)NCc1cccc(-c2ccc(C(C)(C)CCCCC(=O)N3CCOCC3)cc2O)c1` [Compound 20, 1-[4′-(1,1-Dimethyl-6-morpholin-4-yl-6-oxo-hexyl)-2′-hydroxy-biphenyl-3-yl-methyl]-3-ethyl-urea] the “% catalepsy @ 30 mg/kg” value [1] was 3.07 ± 1.15%, the “% catalepsy @ 100 mg/kg” value [1] was 5.05 ± 1.81% and the “Threshold” value ([6]; Table 2, 10 mg/kg i.p., n = 8) was 12.16 ± 2.41 g. For the same molecule, the “Threshold” value ([6]; Table 2, 30 mg/kg i.p., n = 8) was 12.02 ± 2.54 g, the “Threshold” value ([6]; Table 3, 3 mg/kg, n = 7-8/group) was 9.14 ± 3.36 g and the “Threshold” value [6, 7] was 16.69 ± 1.19 g.

For `CCNC(=O)NCc1cccc(-c2ccc(C(C)(C)CCCNC(=O)C(C)(C)C)cc2O)c1` [Compound 35, N-(4-{3′-[(3-Ethyl-ureido)-methyl]-2-hydroxy-biphenyl-4-yl}-4-methyl-pentyl)-2,2-dimethyl-propionamide], the “Threshold” value [6, 7] was 10.96 ± 2.66 g.

For `CC(C)(CCCCC(=O)N1CCOCC1)c1ccc(-c2cccc(CNC(=O)C3CCCO3)c2)c(O)c1` (centres unmarked) [Compound 41, Tetrahydrofuran-2-carboxylic acid [4′-(1,1-dimethyl-6-morpholin-4-yl-6-oxo-hexyl)-2′-hydroxy-biphenyl-3-ylmethyl]-amide], the “% catalepsy @ 30 mg/kg” value [1] was 13.07 ± 2.85% and the “% catalepsy @ 100 mg/kg” value [1] was 58.78 ± 7.95%.

For `CC(C)(CCCCC(=O)N1CCOCC1)c1ccc(-c2cccc(CNS(C)(=O)=O)c2)c(O)c1` [Compound 71], the “% catalepsy @ 30 mg/kg” value [1] was 3.38 ± 2.75% and the “% catalepsy @ 100 mg/kg” value [1] was 24.65 ± 3.36%.

`Cc1c(C(=O)c2cccc3ccccc23)c2cccc3c2n1[C@H](CN1CCOCC1)CO3` [WIN+, WIN55,212-2, reference compound] was tested, and the “% catalepsy” value ([1]; WIN @ 10 mg/kg i.p.) was 51.64 ± 2.69% and the “Threshold” value [6, 8] was 15.03 ± 1.70 g.

`Cc1c(C(=O)c2cccc3ccccc23)c2cccc3c2n1[C@@H](CN1CCOCC1)CO3` [WIN−, WIN55,212-3, reference compound] was tested, and the “Threshold” value [6, 8] was 6.25 ± 1.19 g.
